Data set [1] in a line: Stability assay in 10% FBS (gel electrophoresis of remaining DNA). The following applies: 37° C., 5.3 μM; for time until entirely degraded: 10% FBS and 1X PBS.
Data set [2] has as its system Beta*. In words: Hybridization with complementary DNA, native gel electrophoresis. Type of data set: binding. The following applies: stoichiometric complementary DNA, temperature annealing, for Beta-SBiB2 the complementary strand is not stated. The source says:
(§1) Hybridization-driven self-assembly has made DNA a versatile building material for nanoscience. The sequence control over SBiB incorporation in DNA can expand the availability of DNA-initiators as new precursors for the fabrication of hybrid nanomaterials. Towards such an end, the hybridization of a mixed oligonucleotide sequence containing an internal SBiB initiator residue in the middle (Beta-SBiB1) was studied with a stoichiometric amount of complementary DNA followed by temperature annealing. For hybridization experiments, two different complementary strands to Beta-SBiB1 were used: one which was fully complementary to the Beta sequence (Beta*) and another that was fully complementary to the Beta sequence with the additional inclusion of a mismatched T residue opposite the SBiB location within the Beta sequence (Beta*Tmm). Beta*Tmm was used to evaluate if the single T residue opposite the 3 carbons insert of SBiB could reduce the strain during duplex formation.
(§2) Double-stranded DNA preparation and melting curve analysis. Desired single-stranded DNA (Beta or Beta-SBiB) was mixed with a stoichiometric amount of complementary DNA (Beta* or Beta*Tmm) at a final concentration of 20 μM in 1×PBS. The DNA mixture was placed in a heat block at 95° C. for 5 min. Following the heating process, the heat block was turned off and slowly cooled to room temperature (approx. 0.5° C./min). […]

Data set [3] has as its system Beta*Tmm. In words: Hybridization with complementary DNA carrying a mismatched T, native gel electrophoresis. It counts as binding. The following applies: stoichiometric complementary DNA, temperature annealing.
Source text: as §1, §2

In the case of “unmodified Beta DNA: purchased 21-mer DNA, ACGTCGAGCAGTCAGAGCTGT (DNA ACGTCGAGCAGTCAGAGCTGT; unmodified DNA)”, the “time until entirely degraded” value in data set [1] (in the absence of free pOEOMA) and in data set [1] (in the presence of free pOEOMA in the supernatant) was no more than 12 h in each case.

With “Beta-SBiB1: ACG TCG AGC AGT /i/ CAG AGC TGT, i = SBiB residue”, the “hybridization (duplex formation)” value in data set [2] and in data set [3] was “successfully hybridize” in each case.

“Beta-SBiB3: /i/ ACG TCG AGC AGT /i/ CAG AGC TG /i/ T” yielded a degradation in data set [1] (10% FBS, after 24 hours) of 46%.

Values taken from patent US20260146060A1, “PHOSPHORAMIDITE CONJUGATES AND METHODS OF FORMING SYNTHETIC OLIGONUCLEOTIDES THEREFROM” (CARNEGIE MELLON UNIVERSITY, priority 2022, published 2026).
